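Growth conditions: 96-well plates. Treatment: test compound, 48 hours, 5 concentrations. Analysis: linear interpolation between bracketing concentrations; unreached endpoints set to highest concentration. GI50 marks 50% less growth. TGI: concentration producing complete growth inhibition.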
Key:
Assay in all cases: NCI anticancer screen, dose series, 48 h
[1] = tested on: 786-0 renal
[2] = tested on: A498 renal
[3] = tested on: A549 NSCLC
[4] = tested on: ACHN renal
[5] = tested on: BT-549 breast
[6] = tested on: CAKI-1 renal
[7] = tested on: CCRF-CEM leukemia
[8] = tested on: COLO 205 colon
[9] = tested on: DU-145 prostate
[10] = tested on: EKVX NSCLC
[11] = tested on: HCC-2998 colon
[12] = tested on: HCT-116 colon
[13] = tested on: HCT-15 colon
[14] = tested on: HOP-62 NSCLC
[15] = tested on: HOP-92 NSCLC
[16] = tested on: HT29 colon
[17] = tested on: IGROV1 ovarian
[18] = tested on: K-562 leukemia
[19] = tested on: KM12 colon
[20] = tested on: LOX IMVI melanoma
[21] = tested on: M14 melanoma
[22] = tested on: MALME-3M melanoma
[23] = tested on: MCF7 breast
[24] = tested on: MDA-MB-231 breast
[25] = tested on: MDA-MB-435
[26] = tested on: MOLT-4 leukemia
[27] = tested on: NCI-H226 lung
[28] = tested on: NCI-H23 lung
[29] = tested on: NCI-H460 lung
[30] = tested on: NCI-H522 lung
[31] = tested on: NCI/ADR-RES ovarian
[32] = tested on: OVCAR-4 ovarian
[33] = tested on: OVCAR-5 ovarian
[34] = tested on: OVCAR-8 ovarian
[35] = tested on: PC-3 prostate
[36] = tested on: RPMI-8226 leukemia
[37] = tested on: RXF 393 renal
[38] = tested on: SF-268 CNS
[39] = tested on: SF-295 CNS
[40] = tested on: SF-539 CNS
[41] = tested on: SK-MEL-2 melanoma
[42] = tested on: SK-MEL-28 melanoma
[43] = tested on: SK-MEL-5 melanoma
[44] = tested on: SK-OV-3 ovarian
[45] = tested on: SN12C renal
[46] = tested on: SNB-19 CNS
[47] = tested on: SNB-75 CNS
[48] = tested on: SR leukemia
[49] = tested on: SW-620 colon
[50] = tested on: T-47D breast
[51] = tested on: TK-10 renal
[52] = tested on: U251 CNS
[53] = tested on: UACC-257 melanoma
[54] = tested on: UACC-62 melanoma
[55] = tested on: UO-31 renal

## CCCCCc1ccc(S(=O)(=O)Nc2cc(-c3csc(NC(=O)CN4CCN(CCO)CC4)n3)ccc2OC)cc1
[1]
  GI50: 1850 nM
  TGI: 3390 nM
[2]
  GI50: 1580 nM
  TGI: 2950 nM
[3]
  GI50: 1890 nM
  TGI: 4180 nM
[4]
  GI50: 1810 nM
  TGI: 3280 nM
[5]
  GI50: 1550 nM
  TGI: 3100 nM
[6]
  GI50: 1620 nM
  TGI: 3320 nM
[7]
  GI50: 2540 nM
  TGI: 7830 nM
[8]
  GI50: 1610 nM
  TGI: 3110 nM
[9]
  GI50: 1890 nM
  TGI: 3600 nM
[10]
  GI50: 1690 nM
  TGI: 3590 nM
[11]
  GI50: 1930 nM
  TGI: 3800 nM
[12]
  GI50: 1720 nM
  TGI: 3240 nM
[13]
  GI50: 1860 nM
  TGI: 3650 nM
[14]
  GI50: 1660 nM
  TGI: 3180 nM
[15]
  GI50: 1500 nM
  TGI: 3000 nM
[16]
  GI50: 1890 nM
  TGI: 3750 nM
[17]
  GI50: 1920 nM
  TGI: 4010 nM
[18]
  GI50: 2690 nM
  TGI: > 100000 nM
[19]
  GI50: 1920 nM
  TGI: 3700 nM
[20]
  GI50: 1730 nM
  TGI: 3240 nM
[21]
  GI50: 1710 nM
  TGI: 3240 nM
[22]
  GI50: 1640 nM
  TGI: 3150 nM
[23]
  GI50: 1620 nM
  TGI: 3200 nM
[24]
  GI50: 1940 nM
  TGI: 3830 nM
[25]
  GI50: 1700 nM
  TGI: 3210 nM
[26]
  GI50: 3170 nM
  TGI: 10600 nM
[27]
  GI50: 1900 nM
  TGI: 3880 nM
[28]
  GI50: 1930 nM
  TGI: 4380 nM
[29]
  GI50: 1840 nM
  TGI: 3460 nM
[30]
  GI50: 1860 nM
  TGI: 3580 nM
[31]
  GI50: 3490 nM
  TGI: 14100 nM
[32]
  GI50: 2050 nM
  TGI: 5120 nM
[33]
  GI50: 2190 nM
  TGI: 5440 nM
[34]
  GI50: 1820 nM
  TGI: 3520 nM
[35]
  GI50: 2680 nM
  TGI: 7880 nM
[36]
  GI50: 1780 nM
  TGI: 4280 nM
[37]
  GI50: 1380 nM
  TGI: 3010 nM
[38]
  GI50: 1700 nM
  TGI: 3400 nM
[39]
  GI50: 1890 nM
  TGI: 3740 nM
[40]
  GI50: 1540 nM
  TGI: 2950 nM
[41]
  GI50: 1780 nM
  TGI: 3360 nM
[42]
  GI50: 1770 nM
  TGI: 3250 nM
[43]
  GI50: 1770 nM
  TGI: 3200 nM
[44]
  GI50: 1810 nM
  TGI: 3300 nM
[45]
  GI50: 1940 nM
  TGI: 3690 nM
[46]
  GI50: 2050 nM
  TGI: 4590 nM
[47]
  GI50: 1390 nM
  TGI: 2750 nM
[48]
  GI50: 1760 nM
  TGI: 5230 nM
[49]
  GI50: 1750 nM
  TGI: 3300 nM
[50]
  GI50: 1790 nM
  TGI: 3780 nM
[51]
  GI50: 1940 nM
  TGI: 3960 nM
[52]
  GI50: 1730 nM
  TGI: 3410 nM
[53]
  GI50: 1660 nM
  TGI: 3220 nM
[54]
  GI50: 1810 nM
  TGI: 3540 nM
[55]
  GI50: 1520 nM
  TGI: 3030 nM
